Assay results reported in PMC3669024, “Pharmacological Characterization of a 5-HT1-Type Serotonin Receptor in the Red Flour Beetle, Tribolium castaneum” (PLoS ONE, 2013).
Counter-ions that a name gives are not always drawn.

Legend:
Trica5-HT1 [1] = target: T1, Trica5-HT1 (Tribolium castaneum, UniProt R9ULB8); experiment: Aequorin-luminescence assay in CHO-PAM28 cells (no Gα16), Ca2+ signaling of Trica5-HT1; assay type: cell-based; conditions: CHO-PAM28 cells transfected with the receptor
Experimental: (§1) General binding studies were performed in Chinese hamster ovary (CHO) WTA11 cells stably coexpressing apoaequorin and the promiscuous Gα16. This allowed us to measure the pharmacology independent of the downstream signaling. CHO-PAM28 cells stably expressing apoaequorin, but not the promiscuous Gα16, and human embryonic kidney cells (HEK) 293 cells were used to measure downstream signaling via Ca^2+ and cAMP, respectively. CHO cell lines were provided by Prof. Marc Parmentier (University of Brussels, Belgium) and Dr. Michel Detheux (Euroscreen S.A., Belgium). HEK293 cells were a gift from Prof. Arnd Baumann (Research Centre Jülich, Germany.
Cells were cultured in vitro as monolayers at 37°C, 5% CO2 and high relative humidity, and subcultivated twice a week. […] HEK293 cells were cotransfected with receptor construct (4 µg) and CRE-luciferase construct (2 µg), consisting of the open reading frame of the reporter gene, luciferase, downstream of a multimerized cAMP-response-element (CRE6x), [39]. […]
The transfected CHO cells were detached with phosphate buffered saline (PBS) containing 0.2% EDTA and collected in DMEM/F-12 (without phenol red, with L-glutamine and 10 mM HEPES) (Gibco). The amount of viable cells was determined using the NucleoCounter NC-100+TM (Chemometic). […] Receptor activity was measured as the light emission after adding 50 µl of the cell suspension. […]

Trica5-HT1 [2] = target: T1, Trica5-HT1; experiment: Aequorin-luminescence assay, agonist activation of Trica5-HT1 in CHO-WTA11 cells (apoaequorin + Gα16); assay type: cell-based; conditions: for response at 100 µM agonist: Figure 3A
Experimental: as §1
(§2) Cells were cultured in vitro as monolayers at 37°C, 5% CO2 and high relative humidity, and subcultivated twice a week. For transfection of CHO cells, 2.5 ml Opti-MEM®I (Invitrogen), 5 µg plasmid DNA and 12.5 µl Plus^TMreagent (Invitrogen) were mixed, stored at room temperature for 5 min and next repleted with 30 µl Lipofectamine™LTX (Invitrogen). After 30 min incubation at room temperature, this transfection mixture was added dropwise to the cells together with 5 ml medium. HEK293 cells were cotransfected with receptor construct (4 µg) and CRE-luciferase construct (2 µg), consisting of the open reading frame of the reporter gene, luciferase, downstream of a multimerized cAMP-response-element (CRE6x), [39]. All transfections were performed in T75 flasks with a confluency of about 60 percent. Cells were grown overnight, after which 15 ml of medium was added for an additional overnight incubation period.
(§3) The transfected CHO cells were detached with phosphate buffered saline (PBS) containing 0.2% EDTA and collected in DMEM/F-12 (without phenol red, with L-glutamine and 10 mM HEPES) (Gibco). The amount of viable cells was determined using the NucleoCounter NC-100+TM (Chemometic). Cells were pelleted for 4 min at 800 rpm at room temperature and resuspended in BSA-medium (DMEM/F12 without phenol red, with L-glutamine and 10 mM HEPES, supplemented with 0.1% bovine serum albumin) to a concentration of 5×10^6 cells/ml. Coelenterazine H (Invitrogen) was added to a final concentration of 5 µM, and cells were gently shaken for 4 h at room temperature in the dark. After a 10-fold dilution in BSA-medium, cells were incubated another 30 min. The pharmacological ligands were dissolved in BSA-medium. For agonists, 50 µl containing the final ligand concentration was added to appropriate wells of a 96-well plate. For antagonists, 25 µl of the antagonist solution was supplemented with 25 µl of a 5-HT solution. Receptor activity was measured as the light emission after adding 50 µl of the cell suspension. Light emission was measured for 30 s using a Mithras LB940 (Berthold Technologies). Subsequently, cells were lysed with Triton X-100 (0.1% in BSA-medium) and light emission was recorded for another 8 s. BSA-medium was used as a negative control. Light emission from each well was calculated relative to the total response (ligand+Triton X-100) using the output file of Mikrowin2000 software (Mikrotek). Further analysis was done in Graphpad Prism 5.
In order to pharmacologically characterize Trica5-HT1, we used CHO-WTA11 cells stably expressing apoaequorin and the promiscuous Gα16 subunit. […] The dose-response relationship for 5-HT and these synthetic agonists was examined at concentrations ranging from 1 pM to 1 mM (Figure 3B). […] Since the efficacy achieved by any agonist depends on the number of receptors expressed, we measured a dose-response curve for 5-HT in every experiment and normalized all agonist effects to the maximum 5-HT response, set at 100% (Figure 3B).

Trica5-HT1 [3] = target: T1, Trica5-HT1; experiment: CRE-luciferase reporter-gene assay, NKH-477 stimulated cAMP in HEK293 cells expressing Trica5-HT1; assay type: cell-based; conditions: for IC50: NKH-477 stimulated cAMP
Experimental: as §1, §2
Cotransfected HEK293 cells were detached and the amount of viable cells was determined as described for CHO cells. Cells were pelleted for 4 min at 800 rpm at room temperature and resuspended in DMEM/F12 medium (without phenol red, with L-glutamine and 10 mM HEPES) containing 200 µM 3-isobutyl-1-methylxanthine (IBMX, Sigma-Aldrich) to a concentration of 10^6 cells/ml. The pharmacological ligands were dissolved in DMEM/F12 medium without phenol red containing 200 µM IBMX. The water-soluble forskolin analog NKH-477 was added to a concentration of 20 µM to measure Trica5-ht1-mediated effects on cellular cAMP signaling. In each well of a 96-well plate, 50 µl of ligand suspension and 50 µl of cell suspension were dispensed. […] Light emission was measured for 5 s per well using a Mithras LB940 (Berthold Technologies). […] Data were analyzed as described for CHO cells.
CHO-PAM28 and HEK293 cells were used to determine the downstream signaling pathway of Trica5-HT1. […] Relative high variation in the data can be explained by assay based variation since cells were not counted when dispensed. […]

Pea5-HT1 = test system: Pea5-HT1; set-up: method as in PMID 20233210; conditions: cited from earlier work
Trica5-HT1 [4] = target: T1, Trica5-HT1; experiment: Aequorin-luminescence assay, antagonist inhibition of 5-HT mediated activation of Trica5-HT1 in CHO-WTA11 cells; assay type: cell-based
Experimental: as §1, §2, §3
Potential antagonists were tested by simultaneously applying 5-HT (100 nM) and a high dose of antagonist (100 µM) to Trica5-HT1 expressing cells (Figure 4A). In addition, the dose-dependence of the antagonistic effects were measured with antagonist concentrations ranging from 10 nM to 1 mM (Figure 4B). […] We used the Gaddum/Schild plot to compare the inhibitory potencies of the antagonists by their pA2 values (i.e. the […] of the concentration of antagonist that doubles the amount of 5-HT required for obtaining the same effect).

Am5-HT1 = test system: Am5-HT1; set-up: method as in PMID 20349263; conditions: cited from earlier work
[5] = EC50, receptor activation in CHO-WTA11 cells
[6] = logEC50 (mean ± SEM), receptor activation in CHO-WTA11 cells, given as negative log values

T1 sequence (R9ULB8 entry or part of it): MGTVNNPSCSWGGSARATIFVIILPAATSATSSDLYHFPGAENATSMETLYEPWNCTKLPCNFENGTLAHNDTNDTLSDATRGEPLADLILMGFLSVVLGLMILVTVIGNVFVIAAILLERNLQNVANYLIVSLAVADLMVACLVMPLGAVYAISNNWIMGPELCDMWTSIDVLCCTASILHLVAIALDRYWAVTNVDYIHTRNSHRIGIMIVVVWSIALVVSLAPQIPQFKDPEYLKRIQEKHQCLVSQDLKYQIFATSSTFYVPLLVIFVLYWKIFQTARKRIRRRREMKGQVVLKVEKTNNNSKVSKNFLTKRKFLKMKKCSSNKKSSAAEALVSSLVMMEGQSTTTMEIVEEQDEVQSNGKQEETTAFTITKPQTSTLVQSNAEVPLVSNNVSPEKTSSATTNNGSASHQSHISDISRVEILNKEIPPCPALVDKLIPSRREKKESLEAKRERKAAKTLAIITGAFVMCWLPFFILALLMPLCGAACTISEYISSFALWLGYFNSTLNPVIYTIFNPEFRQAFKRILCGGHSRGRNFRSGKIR

Row | Compound | effect on Ca2+ signaling (Trica5-HT1 [1]) | concentration at which the maximal response was attained (Trica5-HT1 [2]; CHO-WTA11 cells) | response at 100 µM agonist (Trica5-HT1 [2]; CHO-WTA11 cells) | EC50 (Trica5-HT1 [2]; [5]) | EC50 (Trica5-HT1 [2]; Half-maximal activation (EC50), CHO-WTA11 cells) | EC50 (Trica5-HT1 [2]; [6]) | concentration at which maximal attenuation of cAMP synthesis was attained (Trica5-HT1 [3]) | Maximal attenuation of cAMP synthesis (Trica5-HT1 [3]; 5-HT ≥10 µM) | IC50 (Trica5-HT1 [3]; given as negative log value, read-out: logIC50 (mean ± SEM) (converted)) | IC50 (Trica5-HT1 [3]; read-out: Half maximal reduction of cAMP) | inhibition of agonist stimulated receptor (Pea5-HT1) | inhibition of 5-HT induced responses (words) (Trica5-HT1 [4]; 5-HT 100 nM, antagonist 10 nM to 1 mM) | IC50 (Trica5-HT1 [4]; inhibition of 5-HT (100 nM) mediated activation, CHO-WTA11 cells) | logIC50 (mean ± SEM) (Trica5-HT1 [4]; inhibition of 5-HT (100 nM) mediated activation, CHO-WTA11 cells, given as negative log values) | antagonist behaviour (Am5-HT1) | agonist behaviour (Pea5-HT1) | concentrations at which responses were evoked (Trica5-HT1 [2]; CHO-WTA11 cells) | agonist behaviour (Trica5-HT1 [2]; CHO-WTA11 cells, dose-response 1 pM to 1 mM) | agonist behaviour (Am5-HT1)
1 | NCCc1c[nH]c2ccc(O)cc12 [5-HT, 5-HT hydrochloride] | No effect | ≥ 10 µM | Significant responses | 95 nM | 95.2 nM | 97.7 nM | ≥ 10 µM | ~40% | 83.2 nM | 82.7 nM | – | – | – | – | – | – | – | – | –
2 | COc1ccccc1N1CCN(CCN(C(=O)C2CCCCC2)c2ccccn2)CC1 [WAY-100635, N-{2-[4-(2-methoxyphenyl)-1-piperazinyl]-ethyl}-N-(2-pyridinyl) cyclohexanecarboxamide] | – | – | – | – | – | – | – | – | – | – | effective inhibition | no clear dose-dependent effect | no clear dose-dependence of inhibition | no clear dose-dependence of inhibition | partial antagonist | – | – | – | –
3 | CCCN(CCC)C1CCc2cccc(O)c2C1 (racemic) [8-OH-DPAT, (±)-8-hydroxy-2-(dipropylamino)tetralin hydrobromide] | – | – | Significant responses | 551000 nM | – | 550000 nM | – | – | – | – | – | – | – | – | – | poor agonist | ≥ 100 µM | very poor response | poor agonist
